From patent US20160158246A1, “METHOD OF TREATING DIFFUSE LARGE B-CELL LYMPHOMA (DLBCL) USING A BET-BROMODOMAIN INHIBITOR” (ONCOETHIX GMBH, priority 2013, published 2016)

How the values were obtained:
[1] = test system: DLBCL cell lines (SU-DHL-6, SU-DHL-2); assay: gene expression profiling (Illumina HumanHT-12 Expression BeadChips); assay type: cell-based
Procedure: Baseline gene expression profiles (GEP) were obtained in 38 lymphoma cell lines, including 22 DLBCL with Illumina HumanHT-12 v4 Expression BeadChip. GEP before and after OTX015 treatment were done in […] DLBCL cell lines, too. The relationship between GEP and IC50 values was assessed by Pearson correlation. LIMMA was used for differential expression analysis, followed by Benjamini-Hochberg multiple test correction, and GSEA to test for enrichment of functionally-related genes.
Cell lines: 22 diffuse large B-cell lymphoma (DLBCL), 4 mantle cell lymphomas, 3 multiple myelomas, 3 splenic marginal zone lymphoma and 1 prolymphocytic leukemia. Anti-proliferative of OTX015 (OncoEthix SA, Switzerland) was assessed by MTT and its cytotoxic activity by Annexin V staining and gene expression profiling (GEP) with Illumina HumanHT-12 Expression BeadChips. Data mining was done with LIMMA, GSEA, Metacore.
We performed GEP on 2 cell lines (SU-DHL-6, SU-DHL-2), treated with DMSO or OTX015 (500 nM) for 1, 2, 4, 8 or 12 hours.

[2] = test system: NFKB target genes (IRF4, TNFAIP3 and BIRC3); assay: PCR of NFKB target genes; assay type: cell-based
[3] = test system: pSTAT3 and p50 (NFKB 1) in ABC cell lines; assay: immunoblotting and immunohistochemistry; assay type: cell-based
IL10 and IL4 production = assay: IL10 and IL4 production; assay type: cell-based; conditions: after 24 hours treatment
mTORC1 = mTORC1 (Homo sapiens, UniProt P42345); conditions: cited from earlier work
mTORC2 = mTORC2 (Homo sapiens, UniProt P42345); conditions: cited from earlier work
[4] = test system: pAktS473, pGSK3βS9, pS6, pMAPK, pAktT308; conditions: cited from earlier work
[5] = target: Bruton's tyrosine kinase (BTK) (Homo sapiens, UniProt Q06187); conditions: in intact cells and in cell-free systems; cited from earlier work
BTK and PKCβII = BTK and PKCβII (Homo sapiens, UniProt Q06187); conditions: in intact cells and in cell-free systems; cited from earlier work
PKC = conditions: cited from earlier work
[6] = test system: Lyn, Syk, PKA, casein kinase I, ERK1, ERK2 and p38 kinase; conditions: cited from earlier work
[7] = SU-DHL-6, SU-DHL-2, 500 nM for 1, 2, 4, 8 or 12 hours

BTK and PKCβII, sequence (Q06187 whole entry, species assumed): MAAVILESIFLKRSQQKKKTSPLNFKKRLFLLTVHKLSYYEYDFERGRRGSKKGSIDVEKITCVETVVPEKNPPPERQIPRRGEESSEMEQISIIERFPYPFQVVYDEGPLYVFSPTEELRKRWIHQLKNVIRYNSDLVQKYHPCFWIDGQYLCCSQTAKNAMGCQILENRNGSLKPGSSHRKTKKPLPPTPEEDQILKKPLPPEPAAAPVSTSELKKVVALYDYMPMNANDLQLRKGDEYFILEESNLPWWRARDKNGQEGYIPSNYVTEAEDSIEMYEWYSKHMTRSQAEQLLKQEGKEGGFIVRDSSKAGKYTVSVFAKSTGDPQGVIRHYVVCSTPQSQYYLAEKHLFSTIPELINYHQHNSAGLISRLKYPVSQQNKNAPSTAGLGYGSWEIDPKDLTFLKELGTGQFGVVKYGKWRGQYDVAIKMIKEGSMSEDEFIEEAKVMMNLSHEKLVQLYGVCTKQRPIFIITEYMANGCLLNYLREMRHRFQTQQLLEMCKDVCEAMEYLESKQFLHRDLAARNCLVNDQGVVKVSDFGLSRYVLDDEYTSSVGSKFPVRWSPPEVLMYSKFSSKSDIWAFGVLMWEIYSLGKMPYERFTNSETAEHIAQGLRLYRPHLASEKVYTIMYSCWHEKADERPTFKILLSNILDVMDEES
Bruton's tyrosine kinase (BTK), sequence (Q06187 whole entry, species assumed): as above

With `Cc1sc2c(c1C)C(c1ccc(Cl)cc1)=N[C@@H](CC(=O)Nc1ccc(O)cc1)c1nnc(C)n1-2` [Compound (1-1), 2-[(6S)-4-(4-chlorophenyl)-2,3,9-trimethyl-6H-thienol[3,2-f]-[1,2,4]triazolo[4,3-a][1,4]diazepin-6-yl]-N-(4-hydroxyphenyl)acetamide dihydrate] the “MYD88/JAK/STAT pathway expression (additional GEP)” value ([1]; Example 7) was “down-regulation of the MYD88/JAK/STAT pathway”, the “genes downregulated (GEP), members of the NFKB, TLR and JAK/STAT pathways” value [1, 7] was “downregulated MYD88, IRAK1, TLR6, IL6, STAT3, and TNFRSF17” and the “most frequently downregulated gene (GEP)” value [1, 7] was “MYC was the most frequently downregulated gene”. The “most upregulated genes (GEP)” value [1, 7] was “Most upregulated genes were histones”, the “NFKB target gene expression (PCR)” value [2] was “NFKB target genes (IRF4, TNFAIP3 and BIRC3) were also downregulated” and the “nuclear localization of p50 (NFKB 1)” value [3] was “reduction in nuclear localization of p50 (NFKB 1)”. The “transcriptionally active pSTAT3” value ([3]; 2 ABC cell lines) was “reduction of transcriptionally active pSTAT3” and the “IL10 and IL4 production” value (IL10 and IL4 production) was “IL10 and IL4 production was reduced”.
For `COc1cccc2cc(-c3nc([C@H]4CC[C@H](C(=O)O)CC4)n4ncnc(N)c34)[nH]c12` [OSI-027], the IC50 (mTORC1) is given as 22 nM.
In the case of `COc1ccc(COc2cc3oc(=O)c4cc(C(C)O)ccc4c3cc2OC)cc1` (stereo not shown) [Palomid 529], the “mTORC1 complex inhibition” value (mTORC1) is listed as “inhibits both the mTORC1 and mTORC2 complexes”, the “mTORC2 complex inhibition” value (mTORC2) is listed as “inhibits both the mTORC1 and mTORC2 complexes” and the “effect on phosphorylation markers” value [4] is listed as “reduces phosphorylation of pAktS473, pGSK3βS9, and pS6 but neither pMAPK nor pAktT308”.
For `CC1=C(O)C(=O)[C@@H]2O[C@@H]2C1=O` [Terreic acid, (1R,6S)-3-Hydroxy-4-methyl-7-oxabicyclo[4.1.0]hept-3-ene-2,5-dione], the “catalytic activity of BTK” value [5] is listed as “Inhibits the catalytic activity of BTK”, the “interaction between BTK and PKCβII” value (BTK and PKCβII) is listed as “Inhibits the catalytic activity of BTK as well as the interaction between BTK and PKCβII” and the “activity of PKC” value (PKC) is listed as “without affecting the activity of PKC”. The “effect on activities of Lyn, Syk, PKA, casein kinase I, ERK1, ERK2 and p38 kinase” value [6] was “little or no effect”.
